Holding throughout (conditions): filed as activator, time 50.0 min
Experiment [1] concerns Nrf2 (Mus musculus). In words: Activation of Nrf2 in mouse Hepa1c1c7 cells assessed as increase in NQO1 activity at 5 uM using menadione as substrate incubated for 20 mins followed by substrate addition and measured after 30 mins by spectrophotometry relative to control.
In experiment [2] the test system is Nrf2 (Mus musculus). In words: Activation of Nrf2 in mouse Hepa1c1c7 cells assessed as increase in NQO1 activity at 10 uM using menadione as substrate incubated for 20 mins followed by substrate addition and measured after 30 mins by spectrophotometry relative to control.
The subject of experiment [3] is Nrf2 (Mus musculus). As to the kind of experiment: Activation of Nrf2 in mouse Hepa1c1c7 cells assessed as increase in NQO1 activity at 20 uM using menadione as substrate incubated for 20 mins followed by substrate addition and measured after 30 mins by spectrophotometry relative to control.
In experiment [4] the target is Nuclear factor erythroid 2-related factor 2 (Mus musculus) (UniProt Q60795). As to the kind of experiment: Activation of Nrf2 in mouse Hepa1c1c7 cells assessed as increase in NQO1 activity at 40 uM using menadione as substrate incubated for 20 mins followed by substrate addition and measured after 30 mins by spectrophotometry relative to control.
In experiment [5] the test system is Nrf2 (Mus musculus). In words: Activation of Nrf2 in mouse Hepa1c1c7 cells assessed as increase in NQO1 activity at 2.5 uM using menadione as substrate incubated for 20 mins followed by substrate addition and measured after 30 mins by spectrophotometry relative to control.
In experiment [6] the test system is Nrf2 (Mus musculus). As to the kind of experiment: Activation of Nrf2 in mouse Hepa1c1c7 cells assessed as increase in NQO1 activity at 1.25 uM using menadione as substrate incubated for 20 mins followed by substrate addition and measured after 30 mins by spectrophotometry relative to control.
Experiment [7] relates to Nrf2 (Mus musculus). As to the kind of experiment: Activation of Nrf2 in mouse Hepa1c1c7 cells assessed as increase in NQO1 activity at 0.313 uM using menadione as substrate incubated for 20 mins followed by substrate addition and measured after 30 mins by spectrophotometry relative to control.
Experiment [8] concerns Nrf2 (Mus musculus). As to the kind of experiment: Activation of Nrf2 in mouse Hepa1c1c7 cells assessed as increase in NQO1 activity at 0.625 uM using menadione as substrate incubated for 20 mins followed by substrate addition and measured after 30 mins by spectrophotometry relative to control.
The subject of experiment [9] is Nrf2 (Mus musculus). As to the kind of experiment: Activation of Nrf2 in mouse Hepa1c1c7 cells assessed as increase in NQO1 activity using menadione as substrate incubated for 20 mins followed by substrate addition and measured after 30 mins by spectrophotometry.
For experiment [10], the target named is Nuclear factor erythroid 2-related factor 2 (Mus musculus) (UniProt Q60795). In words: Activation of Nrf2 in mouse Hepa1c1c7 cells assessed as increase in NQO1 activity at 25 uM using menadione as substrate incubated for 20 mins followed by substrate addition and measured after 30 mins by spectrophotometry relative to control.
Experiment [11] shares this target. In words: Activation of Nrf2 in mouse Hepa1c1c7 cells assessed as increase in NQO1 activity at 50 uM using menadione as substrate incubated for 20 mins followed by substrate addition and measured after 30 mins by spectrophotometry relative to control.
The test system of experiment [12] is Nrf2 (Mus musculus). As to the kind of experiment: Activation of Nrf2 in mouse Hepa1c1c7 cells assessed as increase in NQO1 activity at 0.4 uM using menadione as substrate incubated for 20 mins followed by substrate addition and measured after 30 mins by spectrophotometry relative to control.
The test system of experiment [13] is Nrf2 (Mus musculus). In words: Activation of Nrf2 in mouse Hepa1c1c7 cells assessed as increase in NQO1 activity at 0.8 uM using menadione as substrate incubated for 20 mins followed by substrate addition and measured after 30 mins by spectrophotometry relative to control.
Experiment [14] deals with Nrf2 (Mus musculus). In words: Activation of Nrf2 in mouse Hepa1c1c7 cells assessed as increase in NQO1 activity at 1.6 uM using menadione as substrate incubated for 20 mins followed by substrate addition and measured after 30 mins by spectrophotometry relative to control.
The target of experiment [15] is Nuclear factor erythroid 2-related factor 2 (Mus musculus) (UniProt Q60795). In words: Activation of Nrf2 in mouse Hepa1c1c7 cells assessed as increase in NQO1 activity at 6.25 uM using menadione as substrate incubated for 20 mins followed by substrate addition and measured after 30 mins by spectrophotometry relative to control.
For experiment [16] the target is unchanged. As to the kind of experiment: Activation of Nrf2 in mouse Hepa1c1c7 cells assessed as increase in NQO1 activity at 12.5 uM using menadione as substrate incubated for 20 mins followed by substrate addition and measured after 30 mins by spectrophotometry relative to control.
In experiment [17] the test system is Nrf2 (Mus musculus). As to the kind of experiment: Activation of Nrf2 in mouse Hepa1c1c7 cells assessed as increase in NQO1 activity at 3.125 uM using menadione as substrate incubated for 20 mins followed by substrate addition and measured after 30 mins by spectrophotometry relative to control.

Our source for the T/C, Activity and CD values is ChEMBL document CHEMBL4765347, “Radiomodulatory effect of a non-electrophilic NQO1 inducer identified in a screen of new 6, 8-diiodoquinazolin-4(3H)-ones carrying a sulfonamide moiety” (Eur J Med Chem, 2020).

Sequence of Nuclear factor erythroid 2-related factor 2 (Mus musculus) (Q60795 whole entry, looked up): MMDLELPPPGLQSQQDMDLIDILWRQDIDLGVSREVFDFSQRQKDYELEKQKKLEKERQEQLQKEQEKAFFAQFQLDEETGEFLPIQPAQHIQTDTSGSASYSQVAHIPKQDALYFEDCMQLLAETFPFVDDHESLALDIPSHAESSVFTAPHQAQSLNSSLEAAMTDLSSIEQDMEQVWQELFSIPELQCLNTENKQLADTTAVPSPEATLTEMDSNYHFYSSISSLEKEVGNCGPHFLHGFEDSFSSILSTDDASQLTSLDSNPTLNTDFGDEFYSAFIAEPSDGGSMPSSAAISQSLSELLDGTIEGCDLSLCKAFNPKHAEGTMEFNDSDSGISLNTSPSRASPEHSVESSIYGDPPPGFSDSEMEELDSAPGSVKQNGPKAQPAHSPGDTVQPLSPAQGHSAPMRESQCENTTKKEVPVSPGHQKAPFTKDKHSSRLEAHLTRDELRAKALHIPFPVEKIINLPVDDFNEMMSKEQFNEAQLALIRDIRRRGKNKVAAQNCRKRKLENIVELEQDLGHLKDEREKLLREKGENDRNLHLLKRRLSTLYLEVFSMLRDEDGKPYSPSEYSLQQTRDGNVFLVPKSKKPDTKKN

Regarding `CCOc1ccc(NC(=O)CSc2nc3c(I)cc(I)cc3c(=O)n2-c2ccc(S(N)(=O)=O)cc2)cc1`, the T/C in the experiment with Nrf2 (Mus musculus) [1] is 1; in the experiment with Nrf2 (Mus musculus) [2], 0.99; in the experiment on Nrf2 (Mus musculus) [3], 1.09; in experiment [4] it was 1.16; with Nrf2 (Mus musculus) [5], 1.02; with Nrf2 (Mus musculus) [6] it was 0.99. The T/C with Nrf2 (Mus musculus) [7] was found to be 1.01; with Nrf2 (Mus musculus) [8], 1.02.
For the compound `Cc1cccc([N+](=O)[O-])c1NC(=O)CSc1nc2c(I)cc(I)cc2c(=O)n1-c1ccc(S(N)(=O)=O)cc1`, in the experiment with Nrf2 (Mus musculus) [9], the Activity result is “Dose-dependent effect”. In addition, in the experiment with Nrf2 (Mus musculus) [9], the CD is 50 µM. For the same compound, the T/C in experiment [10] worked out at 1.34; in [11], 1.94; in the experiment on Nrf2 (Mus musculus) [12], 0.95; in the experiment with Nrf2 (Mus musculus) [13], 0.93; in the experiment on Nrf2 (Mus musculus) [14], 0.89; in [15] it was 0.91. Also, the T/C in experiment [16] was determined as 1.05; in the experiment on Nrf2 (Mus musculus) [17], 0.83.
Turning to `COc1cc(NC(=O)CSc2nc3c(I)cc(I)cc3c(=O)n2-c2ccc(S(N)(=O)=O)cc2)cc(OC)c1`, the T/C is 1.73 in experiment [10]; 1.81 in experiment [11]; 1 in the experiment with Nrf2 (Mus musculus) [12]; 1.01 in the experiment on Nrf2 (Mus musculus) [13]; 1.02 in the experiment with Nrf2 (Mus musculus) [14]; 1.22 in [15]. Also, the T/C in experiment [16] turned out to be 1.52; with Nrf2 (Mus musculus) [17], 1.06.
`Cc1cccc(NC(=O)CSc2nc3c(I)cc(I)cc3c(=O)n2-c2ccc(S(N)(=O)=O)cc2)c1`: the T/C in experiment [10] stood at 1.27; in experiment [11], 1.48; in the experiment with Nrf2 (Mus musculus) [12] it was 1.05; in the experiment on Nrf2 (Mus musculus) [13], 1.01; in the experiment with Nrf2 (Mus musculus) [14] it was 1.04; in experiment [15], 1.06. For the same compound, the T/C in experiment [16] was 1.14; with Nrf2 (Mus musculus) [17], 1.05.
For `Cc1ccccc1NC(=O)CSc1nc2c(I)cc(I)cc2c(=O)n1-c1ccc(S(N)(=O)=O)cc1`, the T/C was 1.31 in [10]; 1.43 in [11]; 1.04 with Nrf2 (Mus musculus) [12]; 1.04 with Nrf2 (Mus musculus) [13]; 1.04 in the experiment with Nrf2 (Mus musculus) [14]; 1.13 in [15]. For the same compound, the figures for the T/C (in experiment [16]; in the experiment on Nrf2 (Mus musculus) [17]) were 1.27 and 1.06, respectively.
For the compound `NS(=O)(=O)c1ccc(-n2c(S)nc3c(I)cc(I)cc3c2=O)cc1`, the T/C turned out to be 1.05 in experiment [10]; 1.01 with Nrf2 (Mus musculus) [12]; 1.04 in the experiment with Nrf2 (Mus musculus) [13]; 1.06 with Nrf2 (Mus musculus) [14]; 1.02 in experiment [15]; 1.06 in experiment [16]. The T/C in the experiment with Nrf2 (Mus musculus) [17] is 1.01.
Regarding `COc1ccc(NC(=O)CSc2nc3c(I)cc(I)cc3c(=O)n2-c2ccc(S(N)(=O)=O)cc2)cc1`, the T/C in experiment [10] turned out to be 1.18; in experiment [11] it was 1.29; in the experiment on Nrf2 (Mus musculus) [12], 1.01; in the experiment on Nrf2 (Mus musculus) [13], 1.02; in the experiment on Nrf2 (Mus musculus) [14] it was 1; in [15], 0.99. For the same compound, the T/C in experiment [16] stood at 1.08; with Nrf2 (Mus musculus) [17], 0.98.
For `Cc1ccc(NC(=O)CSc2nc3c(I)cc(I)cc3c(=O)n2-c2ccc(S(N)(=O)=O)cc2)cc1`, the T/C in [10] amounted to 1.08; in [11], 1.13; with Nrf2 (Mus musculus) [12], 1.01; in the experiment on Nrf2 (Mus musculus) [13], 0.99; with Nrf2 (Mus musculus) [14], 0.99; in experiment [15] it was 0.99. The T/C was 1 in [16] and 0.97 with Nrf2 (Mus musculus) [17].
As to `NS(=O)(=O)c1ccc(-n2c(SCC(=O)Nc3ccc([N+](=O)[O-])cc3[N+](=O)[O-])nc3c(I)cc(I)cc3c2=O)cc1`, the T/C turned out to be 1.08 with Nrf2 (Mus musculus) [1]; 1.2 in the experiment on Nrf2 (Mus musculus) [2]; 1.36 with Nrf2 (Mus musculus) [3]; 1.68 in experiment [4]; 1.04 in the experiment on Nrf2 (Mus musculus) [5]; 1.03 in the experiment with Nrf2 (Mus musculus) [6]. Further, the T/C is 1.01 in the experiment with Nrf2 (Mus musculus) [7] and 1.04 with Nrf2 (Mus musculus) [8].
In the case of `CCc1ccccc1NC(=O)CSc1nc2c(I)cc(I)cc2c(=O)n1-c1ccc(S(N)(=O)=O)cc1`, the T/C in the experiment with Nrf2 (Mus musculus) [1] is 1.01; in the experiment with Nrf2 (Mus musculus) [2], 1.01; in the experiment on Nrf2 (Mus musculus) [3], 1.01; in experiment [4], 1.05; in the experiment on Nrf2 (Mus musculus) [5] it was 0.97; with Nrf2 (Mus musculus) [6] it was 0.99. Also, the T/C in the experiment with Nrf2 (Mus musculus) [7] was found to be 0.99; in the experiment on Nrf2 (Mus musculus) [8] it was 0.97.
Take `CCc1cccc(NC(=O)CSc2nc3c(I)cc(I)cc3c(=O)n2-c2ccc(S(N)(=O)=O)cc2)c1`: the T/C was determined as 1.04 with Nrf2 (Mus musculus) [1]; 1.09 with Nrf2 (Mus musculus) [2]; 1.15 with Nrf2 (Mus musculus) [3]; 1.3 in [4]; 1.04 with Nrf2 (Mus musculus) [5]; 1.05 with Nrf2 (Mus musculus) [6]. The T/C with Nrf2 (Mus musculus) [7] came to 1.03; in the experiment with Nrf2 (Mus musculus) [8], 1.02.
On to `CCc1ccc(NC(=O)CSc2nc3c(I)cc(I)cc3c(=O)n2-c2ccc(S(N)(=O)=O)cc2)cc1`, for which the T/C in experiment [10] is 1.03; in experiment [11], 1.14; in the experiment with Nrf2 (Mus musculus) [12], 0.98; in the experiment with Nrf2 (Mus musculus) [13], 0.99; in the experiment on Nrf2 (Mus musculus) [14] it was 0.98; in experiment [15], 0.99. The T/C in experiment [16] worked out at 1.01; in the experiment with Nrf2 (Mus musculus) [17], 0.97.
Consider `Cc1cc([N+](=O)[O-])ccc1NC(=O)CSc1nc2c(I)cc(I)cc2c(=O)n1-c1ccc(S(N)(=O)=O)cc1`, for which the T/C in the experiment with Nrf2 (Mus musculus) [1] was 1.06; with Nrf2 (Mus musculus) [2], 1.28; with Nrf2 (Mus musculus) [3] it was 1.53; in the experiment with Nrf2 (Mus musculus) [5] it was 1; with Nrf2 (Mus musculus) [6] it was 0.99; in the experiment on Nrf2 (Mus musculus) [7], 1.01. Further, in the experiment with Nrf2 (Mus musculus) [8], the T/C was 1.01.
For the compound `NS(=O)(=O)c1ccc(-n2c(SCC(=O)Nc3ccccc3)nc3c(I)cc(I)cc3c2=O)cc1`, the T/C in [10] turned out to be 1.26; in experiment [11], 1.47; with Nrf2 (Mus musculus) [12], 1.03; in the experiment on Nrf2 (Mus musculus) [13], 1; in the experiment with Nrf2 (Mus musculus) [14], 1.03; in [15], 1.11. For the same compound, the T/C in experiment [16] was 1.18; in the experiment on Nrf2 (Mus musculus) [17], 1.06.
